# Results from patent US20140088052A1, “CHALCONE DERIVATIVES AS NRF2 ACTIVATORS” (THE JOHNS HOPKINS UNIVERSITY, priority 2011, published 2014).
# Experiments:
# OVA-induced asthma = OVA-induced asthma mouse model; type: in vivo; parameters: dose or concentration left out as unconfirmed; conditions: mice, every other day during sensitization and challenge, prophylactic mode
# Experimental: Mice were sensitized by intraperitoneal injection (day 0, day 14), and challenged intranasally, with OVA (day 21 to day 24). […] 24 h after the last dose of OVA challenge, airway inflammation (FIG. 16A) and airway hyperresponsiveness (AHR) (FIG. 16B) were assessed.
# [1] = test system: LPS-induced TNF-α secretion; test: LPS-induced TNF-α secretion by mouse peritoneal macrophages; type: cell-based, mice; conditions: 5 μM or 10 μM for 16-20 h, LPS 100 ng/mL 4 h, compared to vehicle
# Experimental: After 4 h, TNF-α secretion in cell-free media by macrophages was analyzed by ELISA.
# hematopoietic stem cells = test: Bone marrow mononuclear cells and hematopoietic stem cells in irradiated mice; type: in vivo; conditions: 6.9Gy, single dose 24 h after irradiation, compared to vehicle
# Nrf2 [2] = test: Nrf2-regulated gene expression with or without N-acetyl-cysteine in Beas-2B cells; type: cell-based, human; conditions: 10 μM with NAC 10 mM, 24 h
# Experimental: Cells were harvested 24 h after the treatment and the Nrf2-driven expression of NQO1, HO-1, and GCLM was quantified. β-actin was used for normalization. Data are representative of three independent experiments. Values shown are mean±SD of triplicate wells (P≦0.05);
# The activation of Nrf2 by various electrophiles and compounds that are Michael acceptors is attributed to changes in ROS production and or redox environment and or direct cysteine modification in Keap1. Nguyen, T., et al., The Nrf2-antioxidant response element signaling pathway and its activation by oxidative stress. J. Biol. Chem. 2009, 284, 13291-13295; McMahon, M., et al., Keap1 perceives stress via three sensors for the endogenous signaling molecules nitric oxide, zinc, and alkenals. Proc. Natl. Acad. Sci. U.S.A. 2010, 107, 18838-18843. Whether 2b activates Nrf2 by generating ROS or redox changes also was examined.
# [3] = test system: mice subjected to total body irradiation (TBI); test: Hematopoietic recovery after total body irradiation; type: in vivo
# Experimental: At indicated time periods, a cohort of mice was sacrificed. Peripheral blood was collected by heart puncture at the indicated days and differential blood cell count was analyzed using Hemavet 950FS(P<0.05, n=3 per group). Femur bones were fixed, decalcified sectioned along the sagittal plan and stained with hematoxylin and eosin for analyzing marrow cellularity.
# Nrf2 [4] = test: Pharmacodynamic markers of Nrf2 activity (NQO1, HO-1, GCLM) in irradiated mice; type: in vivo; conditions: irradiated (6.9Gy) mice, day 12, compared to vehicle
# Experimental: NQO1, HO-1 and GCLM levels were analyzed in bone marrow (FIG. 12A), lung (FIG. 12B) and small intestine (FIG. 12C) harvested at day 12 from irradiated (6.9Gy) mice treated with vehicle or drug.
# [5] = test system: mice subjected to total body irradiation (TBI); test: Survival of mice after total body irradiation; type: in vivo, mice (C57BL/6); conditions: 5 more doses every 48 h; for survival: 30 days
# Experimental: To determine whether 2-trifluoromethyl-2′-methoxychalone, a potent Nrf2 activator, improves survival after lethal irradiation, irradiated mice were treated with 2-trifluoromethyl-2′-methoxychalone (200 μmol/kg body weight) or vehicle (100% PEG) by gavage. […] (LD70/30; 70% death in 30 days).
# To investigate the therapeutic efficacy of compound 2b to mitigate mortality and the hematopoietic syndrome, mice were subjected to total body irradiation (TBI). C57BL/6 (8 wks, males,) were fed chow pellets ad libitum and supplied non-acidic water. Mice were subjected to TBI (0.65 Gy/min) in an AECL Gamma cell 40 irradiator (Atomic Energy, Canada).
# Mortality was monitored every day for 30 days.
# Mortality was monitored every day for 30 days. […] The percent mortality of mice treated with the vehicle at 1 h or 6 h after radiation was 100% (data not shown).
structure (smiles),measurement,setting,value
"COc1ccccc1C(=O)/C=C/c1ccccc1C(F)(F)F [Compound 2b, (E)-1-(2-methoxyphenyl)-3-(2-(trifluoromethyl)phenyl)prop-2-en-1-one]",allergen-induced asthma (airway inflammation and airway hyper-responsiveness),OVA-induced asthma,protected the mice from allergen-induced asthma
same,LPS-induced TNF-α secretion by macrophages (ELISA),[1],significant decrease in LPS-induced TNF-α secretion
same,"total BM-MNC per limb and total HSPC, HSC and MPP",hematopoietic stem cells; analysed 24 h after treatment,significantly higher
same,viable hematopoietic stem cells (colony forming cells assay),hematopoietic stem cells,increased number of hematopoietic stem cells
same,"expression of GCLM, NQO1 and HO1 in the presence of NAC",Nrf2 [2],potentially increase the expression of Nr2-regulated antioxidant genes in the presence of NAC
same,bone marrow cellularity (H&E staining),"[3]; 6.9 Gy TBI, day 7 and day 20, compared to vehicle",greater marrow cellularity
same,"WBC, RBC and platelets on day 22 post-irradiation","[3]; 6.9 Gy TBI, oral treatment from 24 h after","significant increase in WBC, red blood cells (RBC) and platelets"
same,"white blood cells, neutrophils and lymphocytes post-irradiation","[3]; 6.9 Gy TBI, oral treatment from 24 h after, compared to vehicle","early increase in white blood cells (WBC), neutrophils and lymphocytes"
same,"hematopoietic reconstitution (CBC analysis, WBC)","[3]; 7.3 Gy TBI, treatment 24 hours after, 30 days",significant recovery of WBC
same,"Nrf2 regulated antioxidants (NQO1, HO-1, GCLM) in BM-MNC, gut and lung",Nrf2 [4],significantly elevated
same,median survival,"[5]; 7.3 Gy TBI, treatment started 24 hours after irradiation, 200 μmol/kg by gavage, vehicle approximately 15 days",26 days
same,survival,"[5]; TBI 6.9 Gy, oral 400 mg/Kg started 24 h after TBI",90%
same,survival,"[5]; TBI 7.1 Gy, oral 400 mg/Kg started 24 h after TBI",60%
same,survival,"[5]; TBI 7.3 Gy, oral treatment started 1 h after TBI",approximately 60%
same,survival,"[5]; TBI 7.3 Gy, oral treatment started 6 h after TBI",~50%
